Patent publication US9663475B2, “2 amino-3,4-dihydrcquinazoline derivatives and the use thereof as cathepsin D inhibitors” (Merck Patent GmbH, priority 2013, dated 2017)
Non-standard residues stand in square brackets, D forms with d. Residues, ends and D or L forms follow the SMILES beside them. *: point of attachment. Sta = CC(C)C[C@H](N)[C@@H](O)CC(=O)O; Isovaleryl = CC(C)CC(=O)*

System: cartilage explant cultures
Assay: not given
Settings: pH 5.5, explant cultures (mouse, cow or human); cited from earlier work

Row | Compound | inhibition of autodigestion of the cartilage
1 | CC(C)CC(=O)N[C@H](C(=O)N[C@H](C(=O)N[C@@H](CC(C)C)[C@@H](O)CC(=O)N[C@@H](C)C(=O)N[C@@H](CC(C)C)[C@@H](O)CC(=O)O)C(C)C)C(C)C [pepstatin] (Isovaleryl-VV[Sta]A[Sta]-OH) | inhibited virtually completely
2 | CC(C)c1nc(CN(C)C(=O)N[C@H](C(=O)N[C@@H](Cc2ccccc2)C[C@H](O)[C@H](Cc2ccccc2)NC(=O)OCc2cncs2)C(C)C)cs1 [ritonavir] | inhibited virtually completely

Target: cathepsin D isolated from the human liver (Homo sapiens (Human), UniProt P07339)
Sequence (P07339 65-161): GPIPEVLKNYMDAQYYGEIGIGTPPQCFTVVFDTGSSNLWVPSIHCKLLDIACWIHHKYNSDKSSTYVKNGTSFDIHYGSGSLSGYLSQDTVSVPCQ
Sequence (P07339 169-412): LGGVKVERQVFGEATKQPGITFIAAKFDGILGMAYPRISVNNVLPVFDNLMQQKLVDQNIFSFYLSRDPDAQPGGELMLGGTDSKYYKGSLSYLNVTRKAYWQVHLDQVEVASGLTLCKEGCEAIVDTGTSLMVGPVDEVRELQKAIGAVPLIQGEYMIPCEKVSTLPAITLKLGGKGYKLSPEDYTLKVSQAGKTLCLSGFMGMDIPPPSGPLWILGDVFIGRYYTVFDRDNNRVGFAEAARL
Assay: In-vitro fluorescence assay for identification of cathepsin D inhibitors
Type: biochemical
Settings: human liver cathepsin D 1.4 nM, pH 5.5, substrate 5 μM; read-out: Cath D IC50
Description: In order to identify modulators of cathepsin D activity, a continuous enzymatic test was carried out with a synthetic peptide which carries a fluorescent group (MCA=(7-methoxycoumarin-4-yl)acetyl) which is quenched by energy transfer from a Dpn (2,4 dinitrophenyl) group on the same molecule, in Greiner 384-well nb microtitre plates. Cleavage of the peptidic substrate by cathepsin D causes an increase in the fluorescence intensity. In order to determine the efficacy of substances, the time-dependent increase in the fluorescence intensity in the presence of the substance was compared with the time-dependent increase in fluorescence in the absence of substances. The reference substance used was pepstatin A (Sigma-Aldrich). The substrate used was MCA-GKPILFFRLK(Dnp)d-R—NH2 (Enzo Life Sciences, Lörach). The enzyme employed was cathepsin D isolated from the human liver (Sigma-Aldrich) in a final concentration of 1.4 nM. The test was carried out in 100 mM sodium acetate buffer, 1.25% (v/v) of DMSO, 0.25% (w/v) of Chaps, pH 5.5. 2 μl of each substance solution with serially diluted substance concentration were added to in each case 4 μl of cathepsin D solution and incubated at room temperature for 10 min. The reaction was started by addition of 2 μl of substrate solution (final concentration 5 μM). After carrying out a starting-point fluorescence measurement (excitation wavelength 340 nm/emission wavelength 450 nm) using an Envision multilabel reader (Perkin Elmer), the reaction was incubated at room temperature for 60 min. The amount of peptide fragment cleaved off during the reaction time was subsequently measured by determination of the increase in the fluorescence intensity at 450 nm (excitation wavelength 340 nm).
The IC50 values of the compounds according to the invention can be obtained from Table 2 from Example 1.

Row | IC50 [µM] | Compound
3 | 0.17 | COc1ccc2c(c1)CC(N1Cc3ccc(C(F)(F)F)cc3N=C1N)C2 (racemic) [Compound A16, 3-(5-methoxyindan-2-yl)-7-trifluoromethyl-3,4-dihydroquinazolin-2-ylamine]
4 | 0.27 | COc1ccc2c(c1)C[C@@H](N1Cc3ccc(C(F)(F)F)cc3N=C1N)C2 (single isomer, unassigned) [Compound A18]
5 | 0.32 | COc1ccc2c(c1)C[C@H](N1Cc3ccc(C(F)(F)F)cc3N=C1N)C2 (single isomer, unassigned) [Compound A19]
6 | 2.7 | NC1=Nc2ccccc2CN1C1Cc2ccccc2C1 [Compound A1, 3-indan-2-yl-3,4-dihydroquinazolin-2-ylamine]
7 | 2.3 | NC1=Nc2ccccc2CN1C1Cc2ccccc2C1 [Compound A2, 3-indan-2-yl-3,4-dihydroquinazolin-2-ylamine]
8 | 0.96 | NC1=Nc2cc(Cl)ccc2CN1C1Cc2ccccc2C1 [Compound A3, 7-chloro-3-indan-2-yl-3,4-di hydroquinazolin-2-ylamine]
9 | 8.4 | NC1=Nc2cccc(Cl)c2CN1C1Cc2ccccc2C1 [Compound A4, 5-chloro-3-indan-2-yl-3,4-di hydroquinazolin-2-ylamine]
10 | 2.2 | NC1=Nc2cc(-c3ccccc3)ccc2CN1C1Cc2ccccc2C1 [Compound A5, 3-indan-2-yl-7-phenyl-3,4-dihydroquinazolin-2-ylamine]
11 | 1.4 | NC1=Nc2cc(Cl)ccc2CN1C1CCCc2ccccc21 (stereo not shown) [Compound A6, 7-chloro-3-(1,2,3,4-tetrahydronaphthalen-1-yl)-3,4-dihydroquinazolin-2-ylamine]
12 | 0.14 | CCCc1ccc2c(c1)N=C(N)N(C1Cc3ccccc3C1)C2 [Compound A7, 3-indan-2-yl-7-propyl-3,4-dihydroquinazolin-2-ylamine]
13 | 1.1 | COc1cc2c(cc1OC)CC(N1Cc3ccc(Cl)cc3N=C1N)C2 [Compound A8, 7-chloro-3-(5,6-dimethoxyindan-2-yl)-3,4-dihydroquinazolin-2-ylamine]
14 | 0.51 | COc1cc2c(cc1OC)CC(N1Cc3ccc(Cl)cc3N=C1N)C2 [Compound A9, 7-chloro-3-(5,6-dimethoxyindan-2-yl)-3,4-dihydroquinazolin-2-ylamine]
15 | 0.3 | NC1=Nc2cc(C(F)(F)F)ccc2CN1C1Cc2ccccc2C1 [Compound A10, 3-indan-2-yl-7-trifluoromethyl-3,4-dihydroquinazolin-2-ylamine]
16 | 0.78 | COc1ccc2c(c1OC)CC(N1Cc3ccc(Cl)cc3N=C1N)C2 (stereo not shown) [Compound A11, 7-chloro-3-(4,5-dimethoxyindan-2-yl)-3,4-dihydroquinazolin-2-ylamine]
17 | 0.81 | COc1cccc2c1CC(N1Cc3ccc(Cl)cc3N=C1N)C2 (stereo not shown) [Compound A12, 7-chloro-3-(4-methoxyindan-2-yl)-3,4-dihydroquinazolin-2-ylamine]
18 | 2.5 | NC1=Nc2cc(C(F)(F)F)ccc2CN1C1CCc2ccccc21 (stereo not shown) [Compound A13, 3-indan-1-yl-7-trifluoromethyl-3,4-dihydroquinazolin-2-ylamine]

Row | IC50 [µM] | Compound
19 | 0.62 | COc1ccc2c(c1)CC(N1Cc3ccc(Cl)cc3N=C1N)C2 (stereo not shown) [Compound A14, 7-chloro-3-(5-methoxyindan-2-yl)-3,4-dihydroquinazolin-2-ylamine]
20 | 1.2 | NC1=Nc2cc(C(F)(F)F)ccc2CN1C1c2ccccc2-c2ccccc21 [Compound A15, 3-(9H-fluoren-9-yl)-7-trifluoromethyl-3,4-dihydroquinazolin-2-ylamine]
21 | 0.27 | CCc1ccc2c(c1)N=C(N)N(C1Cc3ccc(OC)cc3C1)C2 (stereo not shown) [Compound A17, 7-ethyl-3-(5-methoxyindan-2-yl)-3,4-dihydroquinazolin-2-ylamine]
22 | 3.8 | NC1=Nc2cc(C(F)(F)F)ccc2CN1C1CCc2ccccc2C1 (stereo not shown) [Compound A20, 3-(1,2,3,4-tetrahydronaphthalen-2-yl)-7-trifluoromethyl-3,4-dihydroquinazolin-2-ylamine]
23 | 0.22 | NC1=Nc2cc(C(=O)N3CCc4ccccc43)ccc2CN1C1Cc2ccccc2C1 [Compound A21, (2-amino-3-indan-2-yl-3,4-dihydroquinazolin-7-yl)-(2,3-dihydroindol-1-yl)methanone]
24 | 0.18 | COc1ccc2c(c1)CN(C(=O)c1ccc3c(c1)N=C(N)N(C1Cc4ccccc4C1)C3)C2 [Compound A22, (2-amino-3-indan-2-yl-3,4-dihydroquinazolin-7-yl)-(5-methoxy-1,3-dihydroisoindol-2-yl)methanone]
25 | 2.9 | CCN(CC)C(=O)c1ccc2c(c1)N=C(N)N(C1Cc3ccccc3C1)C2 [Compound A23, N,N-diethyl-2-amino-3-indan-2-yl-3,4-dihydroquinazoline-7-carboxamide]
26 | 4.2 | CCN(CC)C(=O)c1ccc2c(c1)N=C(N)N(C1Cc3ccccc3C1)C2 [Compound A24, N,N-diethyl-2-amino-3-indan-2-yl-3,4-dihydroquinazoline-7-carboxamide]
27 | 2.5 | NC1=Nc2cc(C(=O)N3CCOCC3)ccc2CN1C1Cc2ccccc2C1 [Compound A25, (2-amino-3-indan-2-yl-3,4-dihydroquinazolin-7-yl)morpholin-4-ylmethanone]
28 | 3 | NC1=Nc2cc(C(=O)N3CCOCC3)ccc2CN1C1Cc2ccccc2C1 [Compound A26, (2-amino-3-indan-2-yl-3,4-dihydroquinazolin-7-yl)morpholin-4-ylmethanone]
29 | 3.3 | Nc1nc2cc(C(F)(F)F)ccc2c(=O)n1C1Cc2ccccc2C1 [Compound A27, 2-amino-3-indan-2-yl-7-trifluoromethyl-3H-quinazolin-4-one]
30 | 24 | NNc1nc2cc(C(F)(F)F)ccc2c(=O)n1C1Cc2ccccc2C1 [Compound A28, 2-hydrazino-3-indan-2-yl-7-trifluoromethyl-3H-quinazolin-4-one]
31 | 0.31 | NC1=Nc2cc(C(=O)N3CCCC3Cc3ccccc3)ccc2CN1C1Cc2ccccc2C1 (stereo not shown) [Compound A29, (2-amino-3-indan-2-yl-3,4-dihydroquinazolin-7-yl)-(2-benzylpyrrolidin-1-yl)methanone]
32 | 0.24 | NC1=Nc2cc(C(=O)N3CCOc4ccccc43)ccc2CN1C1Cc2ccccc2C1 [Compound A30, (2-amino-3-indan-2-yl-3,4-dihydroquinazolin-7-yl)-(2,3-dihydrobenzo[1,4]oxazin-4-yl)methanone]
33 | 2.5 | CO[C@@H]1c2ccccc2C[C@@H]1N1Cc2ccc(C(F)(F)F)cc2NC1=N [Compound A31, 3-((1R,2S)-1-methoxyindan-2-yl)-7-trifluoromethyl-3,4-dihydro-1H-quinazolin-2-ylidenamine]

System: rat knee joint
Assay: Anti-hyperalgesic effect in animals: carrageenan-induced knee joint inflammation, swelling and Hargreaves test
Type: in vivo
Settings: intra-articular, 30 minutes before CAR, TAC 10 μg/joint
Description: In order to induce an inflammation reaction, a carrageenan solution (CAR, 1%, 50 μl) was injected intra-articularly on one side into a rat knee joint. The uninjected side was used for control purposes. Six animals per group were used. The threshold was determined by means of a micrometer screw (medial-lateral on the knee joint), and the thermal hyperalgesia was determined by means of a directed infrared light source by the Hargreaves method (Hargreaves et al., 1988) on the sole of the foot. […] Experimental description of thermal hyperalgesia (Hargreaves test): the experimental animal is placed in a plastic chamber on a quartz sheet. Before testing, the experimental animal is firstly given about 5-15 minutes time to familiarise itself with the environment. As soon as the experimental animal no longer moves so frequently after the familiarisation phase (end of the exploration phase), the infrared light source, whose focus is in the plane of the glass bottom, is positioned directly beneath the rear paw to be stimulated. […] Light reflected by the paw is recorded as long as the experimental animal sits still. Withdrawal of the paw interrupts this reflection, after which the infrared light source is switched off and the time from switching on to switching off is recorded. […]

Row | Compound | reduction of CAR-induced swelling
34 | C[C@]12C=CC(=O)C=C1CC[C@H]1[C@@H]3C[C@@H](O)[C@](O)(C(=O)CO)[C@@]3(C)C[C@H](O)[C@@]12F [TAC, Triamcinolone] | capable of reducing the CAR-induced swelling

System: not listed separately
Assay: Stability in plasma (h/r/m) or at pH 1.2 or pH 7.4
Type: in vitro ADME
Settings: recovery after 4 h
Description: Stable: Recovery 75% after 4 h.

Row | Stability in plasma (h/r/m) or at pH 1.2 or pH 7.4 | Compound
35 | stab;e | COc1ccc2c(c1)CC(N1Cc3ccc(C(F)(F)F)cc3N=C1N)C2 (racemic) [Compound A16, 3-(5-methoxyindan-2-yl)-7-trifluoromethyl-3,4-dihydroquinazolin-2-ylamine]
36 | stable (Stable: Recovery 75% after 4 h.) | NC1=Nc2ccccc2CN1C1Cc2ccccc2C1 [Compound A1, 3-indan-2-yl-3,4-dihydroquinazolin-2-ylamine]
37 | stable (Stable: Recovery 75% after 4 h.) | CCCc1ccc2c(c1)N=C(N)N(C1Cc3ccccc3C1)C2 [Compound A7, 3-indan-2-yl-7-propyl-3,4-dihydroquinazolin-2-ylamine]
38 | stable (Stable: Recovery 75% after 4 h.) | NC1=Nc2cc(C(F)(F)F)ccc2CN1C1Cc2ccccc2C1 [Compound A10, 3-indan-2-yl-7-trifluoromethyl-3,4-dihydroquinazolin-2-ylamine]
39 | stable (Stable: Recovery 75% after 4 h.) | COc1ccc2c(c1)CC(N1Cc3ccc(Cl)cc3N=C1N)C2 (stereo not shown) [Compound A14, 7-chloro-3-(5-methoxyindan-2-yl)-3,4-dihydroquinazolin-2-ylamine]
40 | stable (Stable: Recovery 75% after 4 h.) | CCc1ccc2c(c1)N=C(N)N(C1Cc3ccc(OC)cc3C1)C2 (stereo not shown) [Compound A17, 7-ethyl-3-(5-methoxyindan-2-yl)-3,4-dihydroquinazolin-2-ylamine]
